Source: ChEMBL document CHEMBL3232913, “Structural basis for the identification of the N-terminal domain of coronavirus nucleocapsid protein as an antiviral target” (2014)
Activity calls are given as the source filed them. No cut-off for these calls is given here.

How the values were obtained:
[1] = biological target: T1, Nucleoprotein (Human coronavirus OC43) (UniProt P33469); assay: Inhibition of human coronavirus OC43 nucleocapsid protein expressed in Escherichia coli BL21(DE3) assessed as reduction of RNA-binding capacity by surface plasmon resonance analysis relative to control; conditions: concentration not given here
T1 sequence (whole entry): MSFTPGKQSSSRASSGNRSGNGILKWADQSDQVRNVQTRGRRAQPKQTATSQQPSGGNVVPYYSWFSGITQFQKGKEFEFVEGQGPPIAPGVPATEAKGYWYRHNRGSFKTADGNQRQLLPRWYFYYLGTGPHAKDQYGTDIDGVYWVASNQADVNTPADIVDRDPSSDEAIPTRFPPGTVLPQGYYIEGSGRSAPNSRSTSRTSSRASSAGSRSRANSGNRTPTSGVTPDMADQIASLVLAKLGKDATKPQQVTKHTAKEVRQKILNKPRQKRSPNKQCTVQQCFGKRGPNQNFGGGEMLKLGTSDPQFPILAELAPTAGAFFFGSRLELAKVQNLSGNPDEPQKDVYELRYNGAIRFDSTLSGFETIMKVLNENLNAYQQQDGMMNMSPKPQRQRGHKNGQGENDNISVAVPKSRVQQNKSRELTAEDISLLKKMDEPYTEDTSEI

Human coronavirus OC43 [2] = assay: Inhibition of Human coronavirus OC43 replication infected in human 293T cells assessed as M mRNA level at 10 uM by RT-PCR analysis (reference value: 0.32 no unit); type: functional
Human coronavirus OC43 [3] = assay: Inhibition of Human coronavirus OC43 replication infected in human 293T cells transfected with wild-type HCoV-OC43 N protein assessed as M mRNA level at 10 uM by RT-PCR analysis (reference value: 2.41 no unit); type: functional
[4] = biological target: T1, Nucleoprotein (Human coronavirus OC43); conditions: 10 uM
Description: Inhibition of human coronavirus OC43 nucleocapsid protein expressed in Escherichia coli BL21(DE3) assessed as reduction of RNA-binding capacity by measuring resonance unit at 10 uM by surface plasmon resonance analysis relative to control

SMILES	inhibition [1] [%]	fold change (FC) (Human coronavirus OC43 [2])	fold change (FC) (Human coronavirus OC43 [3])	inhibition [4]
O=C1C(Cl)=C(NCCN2CCOCC2)C(=O)c2ncccc21	> 10	0.22	2.46	
CN(C)CC(=O)Nc1ccc2[nH]c(=O)c3ccccc3c2c1.Cl [PJ34]	> 10	0.11	0.65	Active
